Results on 3 molecules are retold here after article PMC6009937, “Comparing hydrazine-derived reactive groups as inhibitors of quinone-dependent amine oxidases” (Journal of Enzyme Inhibition and Medicinal Chemistry, 2017).

For one data set, the target named is T1, Lysyl oxidase (LOX) (Bos taurus, UniProt P33072).
T1 construct: LOX was isolated from bovine aorta; from tissue; host or cells: bovine aorta
T1 sequence (P33072 170-418): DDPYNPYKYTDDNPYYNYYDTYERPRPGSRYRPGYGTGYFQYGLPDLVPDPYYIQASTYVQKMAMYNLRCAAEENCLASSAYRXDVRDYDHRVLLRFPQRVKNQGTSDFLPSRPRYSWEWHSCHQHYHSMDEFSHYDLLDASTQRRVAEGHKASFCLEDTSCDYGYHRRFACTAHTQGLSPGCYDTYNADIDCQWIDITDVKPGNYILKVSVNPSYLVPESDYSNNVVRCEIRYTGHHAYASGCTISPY
The data set can be described thus: LOX activity assay (Amplex UltraRed/HRP fluorescence) after preincubation of enzyme with inhibitor. It is filed as biochemical, bovine. The protocol:
LOX was isolated from bovine aorta at 4 °C using slight modifications of previously published procedures. All steps were carried out at in 16 mM phosphate, pH 7.8 (buffer B). After blending the aorta in buffer B containing 400 mM NaCl and 1 mM EDTA to remove soluble contaminants, the enzyme was extracted with buffer B containing 4 M urea and 1 mM EDTA. The crude enzyme extract was filtered, diluted with an equal volume of buffer B to obtain a urea concentration of 2 M, and loaded onto a DEAE column. After washing with buffer B containing 400 mM NaCl, the enzyme was eluted with buffer B containing 400 mM NaCl and 6 M urea. The urea concentration was reduced to 4 M by adding buffer B, and the solution was added to a slurry of ceramic hydroxyapatite in buffer B containing 4 M urea. After stirring, the supernatant was removed by filtration and dialyzed overnight against buffer B. The solution was added to a slurry of ceramic hydroxyapatite in buffer B, washed with small portions of 1 M phosphate and then buffer B, and then eluted with buffer B containing 6 M urea and 500 mM NaCl. After concentration to about 20 mL, the protein was applied to a Sephacryl S-200 gel filtration column preequilibrated with buffer B containing 50 mM NaCl, 1 mM EDTA, and 6 M urea and eluted with the same buffer. Active fractions were concentrated to 1 mL. Total protein concentration for 6 M urea solutions[33] was determined by its absorption at 280 nm using a molar extinction coefficient of 8.39 × 10^4 M^−1 cm ^−1.
(§1) The activity assay is adopted from the method described by Palamakumbura et al.[35]. Enzyme and inhibitor were incubated at 37 °C for the desired inhibition time, diluted into the assay mixture, and analyzed by fluorescence (Agilent Technologies Cary Eclipse Fluorescence Spectrometer, Cary Eclipse Software, 37 °C, λex = 568 and λem = 581 nm). The assay was carried out in boric acid buffer (50 mM, pH 8.2) with 1.2 M urea for LOX or in phosphate buffer (0.1 M, pH = 7.0) for LSDAO. The final reagent concentrations in the assay mixture were 10 mM cadaverine, 10 μM Amplex UltraRed (Life Technologies, Carlsbad, CA), and 1 U/mL horse radish peroxidase (Amresco, Solon, OH).
(§2) The enzyme activity, which is proportional to the rate of increase in fluorescence, was measured for each experiment. Residual activity was calculated by dividing each rate by a maximum rate determined in the absence of inhibitor such that [residual activity] = ([rate with inhibitor] – [baseline rate])/([maximum rate] – [baseline rate]). […] The residual activities from replicate experiments were averaged. For each inhibitor concentration, log([average residual activity]) was plotted against inhibition time. Linear lines of best fit forced through the origin were calculated for each data set using Graphpad Prism 5.0b (La Jolla, CA). For each inhibitor, the slopes of these lines (min^−1) were plotted as –1/slope against 1/[inhibitor concentration] to produce a Kitz–Wilson plot.
(§3) To quantify the selectivity of each inhibitor, we defined a numerical “selectivity factor” as the inhibitor's IC50 value for LOX divided by its IC50 value for LSDAO (Figure 3(C)).

The target of data set [1] is T2, lentil seedling diamine oxidase (LSDAO) (Lens culinaris, UniProt P49252).
T2 construct: Eight-day-old lentil seedlings (Lens esculenta) were blended and extracted; from tissue; host or cells: eight-day-old lentil seedlings (Lens esculenta)
T2 sequence (P49252 19-667): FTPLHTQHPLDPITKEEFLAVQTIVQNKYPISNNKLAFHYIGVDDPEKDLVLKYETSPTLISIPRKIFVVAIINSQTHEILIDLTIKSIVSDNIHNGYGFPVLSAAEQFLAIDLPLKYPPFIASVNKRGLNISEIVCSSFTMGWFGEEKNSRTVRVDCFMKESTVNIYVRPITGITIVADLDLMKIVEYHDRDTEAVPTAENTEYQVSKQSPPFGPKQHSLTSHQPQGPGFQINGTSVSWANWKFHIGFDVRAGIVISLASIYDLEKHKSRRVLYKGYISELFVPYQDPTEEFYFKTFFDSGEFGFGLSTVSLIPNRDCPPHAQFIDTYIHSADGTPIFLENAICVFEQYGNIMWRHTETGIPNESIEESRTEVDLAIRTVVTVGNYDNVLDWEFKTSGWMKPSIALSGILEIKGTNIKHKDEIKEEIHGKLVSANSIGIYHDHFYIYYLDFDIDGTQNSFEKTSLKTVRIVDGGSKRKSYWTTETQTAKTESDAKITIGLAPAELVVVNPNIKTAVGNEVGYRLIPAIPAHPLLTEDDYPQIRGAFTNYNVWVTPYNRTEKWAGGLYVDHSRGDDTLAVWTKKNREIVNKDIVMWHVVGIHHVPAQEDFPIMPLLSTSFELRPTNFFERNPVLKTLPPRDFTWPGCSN
The data set can be described thus: LSDAO activity assay (Amplex UltraRed/HRP fluorescence) after preincubation of enzyme with inhibitor. It is filed as biochemical. The procedure: The LSDAO extraction process was carried out at 4 °C according to the method of Floris et al.[30] with slight modifications. Eight-day-old lentil seedlings (Lens esculenta) were blended and extracted with phosphate buffer (5 mM, pH 6.0, buffer A). Ammonium sulfate (230 g/L, 40% saturation) was used to precipitate contaminants, and then additional ammonium sulfate (125 g/L, 60% saturation) was used to precipitate the LSDAO. The crude precipitate was redissolved, dialyzed against buffer A, applied to a DEAE column, and eluted with buffer A. Active fractions were adjusted to pH 6.5, applied to a CM resin column, and eluted with 5 mM phosphate buffer, pH 6.5. Active fractions were concentrated and the buffer was changed to 10 mM phosphate, pH 7.0 before the protein was applied to a Sephacryl S-300 column and eluted with the same buffer. The concentration of the LSDAO dimer was determined from its absorption at 278 nm in 0.1 M phosphate buffer[31] using a molar extinction coefficient of 2.45 × 10^5 M^−1 cm^−1.
as §1, §2, §3
From the slopes and y-intercepts of these lines, the kinetic parameters KI (the reversible binding constant) and k2 (the rate constant for irreversible reaction) (Figure 5(A)) can be calculated.

Data set [2] has as its system LOX. The note with it: literature data reprocessed by Kitz-Wilson analysis, cited from earlier work.
For data set [3] the following is noted: stated in the text without reference; cited from earlier work.
For data set [4], the system named is LOX. Details: method as in PMID 2888772. Conditions: chick embryos; cited from earlier work.
In data set [5] the test system is LOX. Set-up: method as in PMID 2571459. The note with it: inhibition time not specified; read-out: IC50 LOX in vitro; cited from earlier work.
A further data set relates to rat lysyl oxidase. Details: method as in PMID 19524603. Conditions: cited from earlier work.
Setting [6] is: 10 min, read-out: Average Percent Activity Remaining, LSDAO.

Where “and” joins values, the source holds several entries; their conditions need not be identical. Identical values can stand only once.

As a reminder, the IC50 is the concentration that inhibits the measured activity by half. For orientation: remaining activity means the signal under treatment as a percentage of the control signal. `NNc1ccccc1` [compound 1, phenylhydrazine, reference compound] returned an IC50 against Lysyl oxidase (LOX) of 6 µM. The “Selectivity factor (LOX IC50 value divided by LSDAO IC50 value)” value on Lysyl oxidase (LOX) (10-min preincubation, LOX vs LSDAO) was 600. For the same molecule, half-maximal inhibition in data set [1] (IC50) required 0.01 µM. Further, in data set [1] (setting [6]), the remaining activity at 0.005 µM came to 80%, the remaining activity at 0.0075 µM turned out to be 62%, the remaining activity at 0.01 µM is 50% and the remaining activity at 0.015 µM is 13%. In addition, in data set [1] (setting [6]), the remaining activity at 0.03 µM was 0%, the remaining activity at 0.1 µM amounted to 0% and the remaining activity at 0.5 µM was found to be 0%. Besides, the “LOX k2 (range)” value with LOX [2] is 0.32 (0.16 to >10) min^-1 and 0.32 min^-1. The KI (inactivation) in the data set on LOX [2] (read-out: LOX KI^-1 (range)) is 13 µM. The “pKa of conjugate acid” value in data set [3] was 5.
On to `NNC(=O)c1ccncc1` [hydrazide of isonicotinic acid], for which the “Inhibition of LOX in vivo” value in the data set on LOX [4] is reported as “can partially inhibit LOX”.
As to `NNC(N)=O` [semicarbazide], in the data set with LOX [5], the IC50 was 30 µM. Besides, in the data set with rat lysyl oxidase, the “Inhibition of lysyl oxidase in vivo compared to BAPN” value is reported as “nearly as effective as BAPN”.
